Assay results taken from patent publication US10441663B2, “Methods for treating cancer” (Bicycle Therapeutics Limited, priority 2016, dated 2019).
*1 amine or outer side, *2 acyl side, *3 side chain or, on linkers, in order; H or OH if unused. Where a SMILES comes first, the peptide text is derived from it. Bridges are numbered along the chain shown (N, C = ends). [ ]: non-standard residue; d: D form. The star is where a group is joined. X1 = COc1cc2cc(c1Cl)N(C)C(=O)C[C@H](OC(=O)[C@H](C)N(C)C(=O)CCSSC(C)CCC(=O)*)[C@]1(C)O[C@H]1[C@H](C)[C@@H]1C[C@@](O)(NC(=O)O1)[C@H](OC)/C=C/C=C(\C)C2; 1Nal = N[C@@H](Cc1cccc2ccccc12)C(=O)O; TBMB = c1c(C[*:1])cc(C[*:3])cc1C[*:2]; Tle = CC(C)(C)[C@H](N)C(=O)O; βAla = NCCC(=O)O; Sar = CNCC(=O)O

System: NCI-H292 xenograft
Experiment: In vivo efficacy of BT1718 in NCI-H292 xenograft
Parameters: species or system Mus Musculus; key to Best response at 10 mg/kg: CR complete response; PR partial response
Procedure: The objective of this study was to evaluate the in vivo anti-tumor efficacy of BT1718in treatment of HT1080, NCI-H292, NCI-H1975, MDA-MB-231, HCC1806, RPMI2650, HCT-15, HT-29 and SNU-16 xenograft in BALB/c nude mice.
The HT1080, NCI-H292, NCI-H1975, MDA-MB-231, HCC1806, RPMI2650, HCT-15, HT-29 and SNU-16 tumor cells were maintained in vitro as a monolayer culture in medium supplemented with 10% heat inactivated fetal bovine serum at 37° C. in an […]. The tumor cells will be routinely subcultured twice weekly by trypsin-EDTA treatment. The cells growing in an exponential growth phase will be harvested and counted for tumor inoculation.
Mouse was inoculated subcutaneously at the right flank with tumor cells for tumor development. The animals were randomized and treatment was started when the average tumor reaches certain volume for the efficacy study, the inoculating cell amounts and starting tumor size were shown as below in Table 9. The test article administration and the animal numbers in each group were shown in the experimental design in Table 10.
All the procedures related to animal handling, care and the treatment in the study were performed according to the guidelines of the Association for Assessment and Accreditation of Laboratory Animal Care (AAALAC). At the time of routine monitoring, the animals were daily checked for any effects of tumor growth and treatments on normal behavior such as mobility, food and water consumption (by looking only), body weight gain/loss (body weights were measured every day), eye/hair matting and any other abnormal effect as stated in the protocol. Death and observed clinical signs were recorded on the basis of the numbers of animals within each subset.
The major endpoint was to see if the tumor growth could be delayed or mice could be cured. Tumor size was measured three times weekly in two dimensions using a caliper, and the volume was expressed in mm^3 using the formula: V=0.5 a×b^2 where a and b are the long and short diameters of the tumor, respectively. The tumor size was then used for calculations of T/C value. The T/C value (in percent) is an indication of antitumor effectiveness; T and C are the mean volumes of the treated and control groups, respectively, on a given day.
TGI was calculated for each group using the formula: TGI (%)=[1−(Ti−T0)/(Vi−V0)]×100; Ti is the average tumor volume of a treatment group on a given day, T0 is the average tumor volume of the treatment group on the day of treatment start, Vi is the average tumor volume of the vehicle control group on the same day with Ti, and V0 is the average tumor volume of the vehicle group on the day of treatment start.
Summary statistics, including mean and the standard error of the mean (SEM), are provided for the tumor volume of each group at each time point.
Statistical analysis of difference in tumor volume among the groups was conducted on the data obtained at the best therapeutic time point after the final dose.
A one-way ANOVA was performed to compare tumor volume among groups, and when a significant F-statistics (a ratio of treatment variance to the error variance) was obtained, comparisons between groups were carried out with Games-Howell test. All data were analyzed using Prism. P<0.05 was considered to be statistically significant.

COc1cc2cc(c1Cl)N(C)C(=O)C[C@H](OC(=O)[C@H](C)N(C)C(=O)CCSSC(C)CCC(=O)NCCC(=O)N(C)CC(=O)N(C)CC(=O)N(C)CC(=O)N(C)CC(=O)N(C)CC(=O)N(C)CC(=O)N(C)CC(=O)N(C)CC(=O)N(C)CC(=O)N(C)CC(=O)N[C@@H](C)C(=O)N[C@H]1CSCc3cc4cc(c3)CSC[C@H](NC(=O)[C@@H](C)NC(=O)[C@H](Cc3cccc5ccccc35)NC(=O)[C@H](CCC(=O)O)NC(=O)[C@H](CC(N)=O)NC(=O)[C@@H](C)NC1=O)C(=O)N[C@@H](CCC(=O)O)C(=O)N[C@@H](CC(=O)O)C(=O)N[C@@H](Cc1ccccc1)C(=O)N[C@@H](Cc1ccc(O)cc1)C(=O)N[C@@H](CC(=O)O)C(=O)N[C@@H](C(C)(C)C)C(=O)N[C@H](C(N)=O)CSC4)[C@]1(C)O[C@H]1[C@H](C)[C@@H]1C[C@@](O)(NC(=O)O1)[C@H](OC)/C=C/C=C(\C)C2 (stereo partly drawn) [BT1718] ({X1-βAla}-[Sar][Sar][Sar][Sar][Sar][Sar][Sar][Sar][Sar][Sar]AC[dA]NE[1Nal][dA]CEDFYD[Tle]C-NH2; linker 12-18-25 via TBMB (inferred))
tumors that failed to respond on resumed treatment (10 mg/kg biw re-treatment): 1/3 | tumors with lack of clear tumor growth on re-treatment (10 mg/kg biw re-treatment): 2/3 | Body Weight (1 mpk biw, day 0): 22.8 ± 0.7 g | Tumor Volume (1 mpk biw, day 0): 153 ± 9 mm^3 | Body Weight (1 mpk biw, day 2): 22.9 ± 0.3 g | Tumor Volume (1 mpk biw, day 2): 215 ± 25 mm^3 | Body Weight (1 mpk biw, day 4): 23.4 ± 0.5 g | Tumor Volume (1 mpk biw, day 4): 326 ± 49 mm^3 | Body Weight (1 mpk biw, day 7): 23.6 ± 0.6 g | Tumor Volume (1 mpk biw, day 7): 514 ± 54 mm^3 | Body Weight (1 mpk biw, day 9): 23.7 ± 0.7 g | Tumor Volume (1 mpk biw, day 9): 669 ± 53 mm^3 | Body Weight (1 mpk biw, day 11): 23.4 ± 0.7 g | Tumor Volume (1 mpk biw, day 11): 978 ± 97 mm^3 | Body Weight (1 mpk biw, day 14): 23.5 ± 1.0 g | TGI (%) (1 mpk biw, day 14): 20.7% | Tumor Volume (1 mpk biw, day 14): 1174 ± 98 mm^3 | Tumor Volume(mm^3) (1 mpk biw, day 14): 1174 ± 98 mm^3 | Body Weight (3 mpk biw, day 0): 22.7 ± 0.5 g | Tumor Volume (3 mpk biw, day 0): 151 ± 15 mm^3 | Body Weight (3 mpk biw, day 2): 23.5 ± 0.4 g | Tumor Volume (3 mpk biw, day 2): 226 ± 22 mm^3 | Body Weight (3 mpk biw, day 4): 23.2 ± 0.7 g | Tumor Volume (3 mpk biw, day 4): 334 ± 65 mm^3 | Body Weight (3 mpk biw, day 7): 23.4 ± 0.8 g | Tumor Volume (3 mpk biw, day 7): 443 ± 70 mm^3 | Body Weight (3 mpk biw, day 9): 22.9 ± 0.9 g | Tumor Volume (3 mpk biw, day 9): 591 ± 90 mm^3 | Body Weight (3 mpk biw, day 11): 22.6 ± 1.0 g | Tumor Volume (3 mpk biw, day 11): 781 ± 178 mm^3 | Body Weight (3 mpk biw, day 14): 22.0 ± 1.2 g | TGI (%) (3 mpk biw, day 14): 40.3% | Tumor Volume (3 mpk biw, day 14): 920 ± 258 mm^3 | Tumor Volume(mm^3) (3 mpk biw, day 14): 920 ± 258 mm^3 | Body Weight (10 mpk biw, day 0): 22.8 ± 0.4 g | Tumor Volume (10 mpk biw, day 0): 153 ± 6 mm^3 | Body Weight (10 mpk biw, day 2): 22.1 ± 0.3 g | Tumor Volume (10 mpk biw, day 2): 152 ± 8 mm^3 | Body Weight (10 mpk biw, day 4): 21.7 ± 0.3 g | Tumor Volume (10 mpk biw, day 4): 151 ± 32 mm^3 | Body Weight (10 mpk biw, day 7): 22.4 ± 0.3 g | Tumor Volume (10 mpk biw, day 7): 159 ± 49 mm^3 | Body Weight (10 mpk biw, day 9): 21.8 ± 0.2 g | Tumor Volume (10 mpk biw, day 9): 158 ± 49 mm^3 | Body Weight (10 mpk biw, day 11): 21.8 ± 0.2 g | Tumor Volume (10 mpk biw, day 11): 143 ± 52 mm^3 | Body Weight (10 mpk biw, day 14): 22.5 ± 0.4 g | TGI (%) (10 mpk biw, day 14): 101.6% | Tumor Volume (10 mpk biw, day 14): 133 ± 44 mm^3 | Tumor Volume(mm^3) (10 mpk biw, day 14): 133 ± 44 mm^3 | Best response at 10 mg/kg (NCI-H292, 10 mg/kg): CR | Minimally Effective Dose IV BIW (NCI-H292, dose leading to tumor-stasis): <10 mg/kg | dosing suspension until re-growth to 150 mm3 (after 10 mg/kg biw): 2-3 weeks | tumor volume after regression (after 4 weeks 10 mg/kg biw): below 50 mm3
